Measured values as given in ChEMBL document CHEMBL1201862, “PubChem BioAssay data set” (2004).
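Dose response: 5 concentrations. Exposure: 48 h. Format: 96-well plates. Endpoint: linear interpolation; highest concentration if not reached. At the GI50, growth is halved.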 Calls of active or inactive are those of the source. Cut-off read from the data, not from the text of the source: active = GI50 up to about 1.1 µM and inactive = higher.

Key:
Assay in all cases: inhibition of tumour cell growth, NCI panel, 48 h
SNB-19 = test system: SNB-19
T47D = test system: T47D
Malme-3M = test system: Malme-3M
SF-295 = test system: SF-295
SW-620 = test system: SW-620
LOX IMVI = test system: LOX IMVI
IGROV-1 = test system: IGROV-1
CCRF-CEM = test system: CCRF-CEM
K562 = test system: K562
HCT-116 = test system: HCT-116
EKVX = test system: EKVX
HL-60 = test system: HL-60
A498 = test system: A498
OVCAR-8 = test system: OVCAR-8
OVCAR-5 = test system: OVCAR-5
HT-29 = test system: HT-29
SN12C = test system: SN12C
SK-MEL-2 = test system: SK-MEL-2
KM12 = test system: KM12
M14 = test system: M14
U-251 = test system: U-251
UACC-257 = test system: UACC-257
MDA-MB-231 = test system: MDA-MB-231
HCT-15 = test system: HCT-15
RPMI-8226 = test system: RPMI-8226
MOLT-4 = test system: MOLT-4
MDA-MB-435 = test system: MDA-MB-435
CAKI-1 = test system: CAKI-1
NCI/ADR-RES = test system: NCI/ADR-RES
UACC-62 = test system: UACC-62
SK-MEL-28 = test system: SK-MEL-28
NCI-H23 = test system: NCI-H23
BT-549 = test system: BT-549
A549 = test system: A549
OVCAR-4 = test system: OVCAR-4
PC-3 = test system: PC-3
OVCAR-3 = test system: OVCAR-3
RXF 393 = test system: RXF 393
SR = test system: SR
786-0 = test system: 786-0
Hs-578T = test system: Hs-578T
NCI-H522 = test system: NCI-H522
SK-OV-3 = test system: SK-OV-3
COLO 205 = test system: COLO 205
UO-31 = test system: UO-31
NCI-H226 = test system: NCI-H226
HOP-92 = test system: HOP-92
HCC 2998 = test system: HCC 2998
HOP-62 = test system: HOP-62
MDA-N = test system: MDA-N
SF-268 = test system: SF-268
ACHN = test system: ACHN
MCF7 = test system: MCF7
NCI-H460 = test system: NCI-H460
TK-10 = test system: TK-10
DU-145 = test system: DU-145
SK-MEL-5 = test system: SK-MEL-5
SNB-75 = test system: SNB-75
SF-539 = test system: SF-539

## Cc1ccc(N2C(=O)C3c4[nH]c5ccccc5c4C4CCC(C(C)(C)C)CC4C3C2=O)cc1 (stereo not drawn)
SNB-19
  GI50: 8.75 µM (inactive)
T47D
  GI50: 15.6 µM (inactive)
Malme-3M
  GI50: 6.9 µM (inactive)
SF-295
  GI50: 8.15 µM (inactive)
SW-620
  GI50: > 26.1 µM (inactive)
LOX IMVI
  GI50: 11.6 µM (inactive)
IGROV-1
  GI50: 11.4 µM (inactive)
CCRF-CEM
  GI50: 5.36 µM (inactive)
K562
  GI50: 5.51 µM (inactive)
HCT-116
  GI50: 11.1 µM (inactive)
EKVX
  GI50: 13.6 µM (inactive)
HL-60
  GI50: 7.62 µM (inactive)
A498
  GI50: 16.2 µM (inactive)
OVCAR-8
  GI50: 7.71 µM (inactive)
OVCAR-5
  GI50: 14.1 µM (inactive)
HT-29
  GI50: 13 µM (inactive)
SN12C
  GI50: 10.3 µM (inactive)
SK-MEL-2
  GI50: 21.3 µM (inactive)
KM12
  GI50: 17.5 µM (inactive)
M14
  GI50: 13.6 µM (inactive)
U-251
  GI50: 4.49 µM (inactive)
UACC-257
  GI50: 13.3 µM (inactive)
MDA-MB-231
  GI50: 3.78 µM (inactive)
HCT-15
  GI50: 34.6 µM
RPMI-8226
  GI50: 8.85 µM (inactive)
MOLT-4
  GI50: 3.17 µM (inactive)
MDA-MB-435
  GI50: 16.8 µM (inactive)
CAKI-1
  GI50: 10.2 µM (inactive)
NCI/ADR-RES
  GI50: 12.8 µM (inactive)
UACC-62
  GI50: 16.4 µM (inactive)
SK-MEL-28
  GI50: 18.3 µM (inactive)
NCI-H23
  GI50: 15.1 µM (inactive)
BT-549
  GI50: 19.2 µM (inactive)
A549
  GI50: 10.1 µM (inactive)
OVCAR-4
  GI50: 7.21 µM (inactive)
PC-3
  GI50: 13 µM (inactive)
OVCAR-3
  GI50: 3.03 µM (inactive)
RXF 393
  GI50: 10.4 µM (inactive)
SR
  GI50: 6.05 µM (inactive)
786-0
  GI50: 5.06 µM (inactive)
Hs-578T
  GI50: 4.1 µM (inactive)
NCI-H522
  GI50: 11.2 µM (inactive)
SK-OV-3
  GI50: 14.9 µM (inactive)
COLO 205
  GI50: 8.95 µM (inactive)
UO-31
  GI50: 14.9 µM (inactive)
NCI-H226
  GI50: 17.4 µM (inactive)
HOP-92
  GI50: 15.1 µM (inactive)
HCC 2998
  GI50: 14.8 µM (inactive)
HOP-62
  GI50: 5.38 µM (inactive)
MDA-N
  GI50: 16.8 µM (inactive)
SF-268
  GI50: 6.78 µM (inactive)
ACHN
  GI50: 6.64 µM (inactive)
MCF7
  GI50: 12.6 µM (inactive)
NCI-H460
  GI50: 6.46 µM (inactive)
TK-10
  GI50: 6 µM (inactive)
DU-145
  GI50: 2.48 µM (inactive)
SK-MEL-5
  GI50: 16.8 µM (inactive)

## Cc1cc(C)nc(NS(=O)(=O)c2ccc(Nc3c4ccccc4nc4c(C(=O)NNCCO)cccc34)cc2)n1
SNB-19
  GI50: > 100 µM (inactive)
T47D
  GI50: 5.06 µM (inactive)
Malme-3M
  GI50: > 100 µM (inactive)
SF-295
  GI50: > 100 µM (inactive)
SW-620
  GI50: > 100 µM (inactive)
LOX IMVI
  GI50: 34.6 µM (inactive)
IGROV-1
  GI50: > 100 µM (inactive)
CCRF-CEM
  GI50: 21 µM (inactive)
K562
  GI50: 31 µM (inactive)
EKVX
  GI50: > 100 µM (inactive)
HL-60
  GI50: 42 µM (inactive)
A498
  GI50: > 100 µM (inactive)
OVCAR-8
  GI50: > 100 µM (inactive)
OVCAR-5
  GI50: > 100 µM (inactive)
HT-29
  GI50: > 100 µM (inactive)
SN12C
  GI50: > 100 µM (inactive)
SK-MEL-2
  GI50: 58.6 µM (inactive)
KM12
  GI50: > 100 µM (inactive)
M14
  GI50: > 100 µM (inactive)
U-251
  GI50: > 100 µM (inactive)
UACC-257
  GI50: > 100 µM (inactive)
MDA-MB-231
  GI50: > 100 µM (inactive)
HCT-15
  GI50: > 100 µM
RPMI-8226
  GI50: 15.7 µM (inactive)
MOLT-4
  GI50: 30.9 µM (inactive)
MDA-MB-435
  GI50: 79.3 µM (inactive)
CAKI-1
  GI50: > 100 µM (inactive)
NCI/ADR-RES
  GI50: > 100 µM (inactive)
UACC-62
  GI50: 13.7 µM (inactive)
SK-MEL-28
  GI50: > 100 µM (inactive)
NCI-H23
  GI50: > 100 µM (inactive)
BT-549
  GI50: > 100 µM (inactive)
A549
  GI50: > 100 µM (inactive)
OVCAR-4
  GI50: > 100 µM (inactive)
PC-3
  GI50: > 100 µM (inactive)
OVCAR-3
  GI50: 86.9 µM (inactive)
SR
  GI50: 25.4 µM (inactive)
786-0
  GI50: > 100 µM (inactive)
Hs-578T
  GI50: > 100 µM (inactive)
NCI-H522
  GI50: 39.5 µM (inactive)
SK-OV-3
  GI50: > 100 µM (inactive)
COLO 205
  GI50: > 100 µM (inactive)
UO-31
  GI50: > 100 µM (inactive)
HOP-92
  GI50: > 100 µM (inactive)
HCC 2998
  GI50: > 100 µM (inactive)
HOP-62
  GI50: > 100 µM (inactive)
MDA-N
  GI50: > 100 µM (inactive)
SF-268
  GI50: > 100 µM (inactive)
ACHN
  GI50: > 100 µM (inactive)
MCF7
  GI50: 89.1 µM (inactive)
NCI-H460
  GI50: 15.7 µM (inactive)
TK-10
  GI50: > 100 µM (inactive)
DU-145
  GI50: > 100 µM (inactive)
SK-MEL-5
  GI50: > 100 µM (inactive)

## Cc1ccc(S(=O)(=O)OC2CCN(C)CC2)cc1
SNB-19
  GI50: > 100 µM (inactive)
T47D
  GI50: 23.1 µM (inactive)
Malme-3M
  GI50: 19 µM (inactive)
SF-295
  GI50: > 100 µM (inactive)
SW-620
  GI50: 20.1 µM (inactive)
LOX IMVI
  GI50: > 100 µM (inactive)
IGROV-1
  GI50: > 100 µM (inactive)
K562
  GI50: 19.3 µM (inactive)
HCT-116
  GI50: 46.6 µM (inactive)
EKVX
  GI50: > 100 µM (inactive)
HL-60
  GI50: 18 µM (inactive)
OVCAR-8
  GI50: > 100 µM (inactive)
OVCAR-5
  GI50: > 100 µM (inactive)
SNB-75
  GI50: 42.4 µM (inactive)
HT-29
  GI50: > 100 µM (inactive)
SN12C
  GI50: > 100 µM (inactive)
SK-MEL-2
  GI50: > 100 µM (inactive)
M14
  GI50: > 100 µM (inactive)
U-251
  GI50: > 100 µM (inactive)
UACC-257
  GI50: 24.2 µM (inactive)
MDA-MB-231
  GI50: > 100 µM (inactive)
HCT-15
  GI50: > 100 µM
RPMI-8226
  GI50: 23.2 µM (inactive)
MOLT-4
  GI50: 18.3 µM (inactive)
MDA-MB-435
  GI50: > 100 µM (inactive)
NCI/ADR-RES
  GI50: > 100 µM (inactive)
UACC-62
  GI50: > 100 µM (inactive)
SK-MEL-28
  GI50: > 100 µM (inactive)
NCI-H23
  GI50: 33.7 µM (inactive)
BT-549
  GI50: > 100 µM (inactive)
A549
  GI50: 57.8 µM (inactive)
OVCAR-4
  GI50: > 100 µM (inactive)
PC-3
  GI50: > 100 µM (inactive)
OVCAR-3
  GI50: > 100 µM (inactive)
RXF 393
  GI50: > 100 µM (inactive)
SR
  GI50: 20.5 µM (inactive)
786-0
  GI50: > 100 µM (inactive)
Hs-578T
  GI50: > 100 µM (inactive)
NCI-H522
  GI50: 19 µM (inactive)
SF-539
  GI50: 88.7 µM (inactive)
SK-OV-3
  GI50: > 100 µM (inactive)
COLO 205
  GI50: 21.7 µM (inactive)
HOP-92
  GI50: 19.8 µM (inactive)
HOP-62
  GI50: > 100 µM (inactive)
MDA-N
  GI50: > 100 µM (inactive)
SF-268
  GI50: > 100 µM (inactive)
ACHN
  GI50: 32.6 µM (inactive)
MCF7
  GI50: 47.9 µM (inactive)
NCI-H460
  GI50: > 100 µM (inactive)
TK-10
  GI50: > 100 µM (inactive)
DU-145
  GI50: > 100 µM (inactive)
SK-MEL-5
  GI50: 15.6 µM (inactive)
